# According to article PMC12363342, “Investigating the N-terminal linker histone H1 subtypes as substrates for JmjC lysine demethylases” (RSC Chemical Biology, 2025):
# Square brackets hold non-standard residues; d marks the D form. Ends that are not written are not given here. Lys(Me3) = C[N+](C)(C)CCCC[C@H](N)C(=O)O
# System: KDM3B
# Experiment: LC-MS demethylation activity assay, KDM3B
# Format: biochemical, human
# Settings: 2 μM KDM, 10 μM H1/H3 peptide, 10 μM FAS, 100 μM LAA, 20 μM 2OG, 50 mM HEPES pH 7.5, 2 h, room temperature, T (tri-) initial methylation state
# Method in brief: (§1)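 H1 isoform peptides (10 μM) were incubated 2 h at room temperature with 2 μM recombinant N-terminally His6-tagged catalytic domains in 50 mM HEPES pH 7.5 containing FAS (10 μM), ascorbate (100 μM) and 2OG (20 μM). Reactions were quenched with formic acid (1% final), and demethylation was analysed by LC-MS (Q-TOF).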
row,Substance,"KDM3B demethylation activity, T"
1,"KKKAAK[Lys(Me3)]AGGTPRKA [Peptide H1.2K26me3, 15-mer linker histone H1.2 residues 20-34 peptide, tri-methylated K26]",● [red]
2,"KKKAR[Lys(Me3)]SAGAAKRKA [Peptide H1.4K25me3, 15-mer linker histone H1.4 residues 20-34 peptide, tri-methylated K25]",● [red]
3,"KKKAA[Lys(Me3)]KAGGTPRKA [Peptide H1.2K25me3, 15-mer linker histone H1.2 residues 20-34 peptide, tri-methylated K25]",● [red]
4,"KKKA[Lys(Me3)]KAGATAGKRK [Peptide H1.3K24me3, 15-mer linker histone H1.3 residues 20-34 peptide, tri-methylated K24]",● [red]
5,"KKKATK[Lys(Me3)]AAGAGAAK [Peptide H1.5K26me3, 15-mer linker histone H1.5 residues 20-34 peptide, tri-methylated K26]",● [red]

# Biological target: T1, KDM4E (Homo sapiens, UniProt B2RXH2)
# T1 construct: KDM4DM1-L359,[39]; KDM4EM1-R336,[30]; His6 (N); made in house; host or cells: Escherichia coli
# T1 sequence (B2RXH2 1-336): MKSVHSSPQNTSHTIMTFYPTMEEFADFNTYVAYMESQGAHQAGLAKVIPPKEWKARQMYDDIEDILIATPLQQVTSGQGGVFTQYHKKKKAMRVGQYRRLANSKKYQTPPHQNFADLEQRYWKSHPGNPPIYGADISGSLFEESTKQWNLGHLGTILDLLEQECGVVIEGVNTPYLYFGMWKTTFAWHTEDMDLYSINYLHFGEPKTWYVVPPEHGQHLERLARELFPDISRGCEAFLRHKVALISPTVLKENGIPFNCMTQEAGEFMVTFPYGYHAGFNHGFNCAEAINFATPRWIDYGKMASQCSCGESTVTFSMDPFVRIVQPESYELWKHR
# Experiment: LC-MS demethylation activity assay, KDM4E
# Format: biochemical
# Settings: 2 μM KDM4E, 10 μM peptide, 10 μM FAS, 100 μM LAA, 20 μM 2OG, HEPES pH 7.5, 2 h, room temperature
# Method in brief: as §1
row,Substance,substrate conversion (demethylation) by KDM4E
1,"KKKAAK[Lys(Me3)]AGGTPRKA [Peptide H1.2K26me3, 15-mer linker histone H1.2 residues 20-34 peptide, tri-methylated K26]",~80%
2,"KKKAR[Lys(Me3)]SAGAAKRKA [Peptide H1.4K25me3, 15-mer linker histone H1.4 residues 20-34 peptide, tri-methylated K25]",~95%
3,"KKKAA[Lys(Me3)]KAGGTPRKA [Peptide H1.2K25me3, 15-mer linker histone H1.2 residues 20-34 peptide, tri-methylated K25]",~80%
4,"KKKA[Lys(Me3)]KAGATAGKRK [Peptide H1.3K24me3, 15-mer linker histone H1.3 residues 20-34 peptide, tri-methylated K24]",~80%

# Same assay, conditions: 2 μM KDM4E, 10 μM peptide, standard conditions, 2 h, room temperature
Substance,di-methylated product formed by KDM4E,mono-methylated product formed by KDM4E
"KKKAAK[Lys(Me3)]AGGTPRKA [Peptide H1.2K26me3, 15-mer linker histone H1.2 residues 20-34 peptide, tri-methylated K26]",~50%,~30%
"KKKAR[Lys(Me3)]SAGAAKRKA [Peptide H1.4K25me3, 15-mer linker histone H1.4 residues 20-34 peptide, tri-methylated K25]",~28%,~67%
"KKKAA[Lys(Me3)]KAGGTPRKA [Peptide H1.2K25me3, 15-mer linker histone H1.2 residues 20-34 peptide, tri-methylated K25]",~50%,~30%
"KKKA[Lys(Me3)]KAGATAGKRK [Peptide H1.3K24me3, 15-mer linker histone H1.3 residues 20-34 peptide, tri-methylated K24]",~42%,~38%
"KKKATK[Lys(Me3)]AAGAGAAK [Peptide H1.5K26me3, 15-mer linker histone H1.5 residues 20-34 peptide, tri-methylated K26]",~40%,~16%

# Same assay, conditions: 2 μM KDM, 10 μM H1/H3 peptide, 10 μM FAS, 100 μM LAA, 20 μM 2OG, 50 mM HEPES pH 7.5, 2 h, room temperature, T (tri-) initial methylation state
row,Substance,"KDM4E demethylation activity, T"
1,"KKKAAK[Lys(Me3)]AGGTPRKA [Peptide H1.2K26me3, 15-mer linker histone H1.2 residues 20-34 peptide, tri-methylated K26]",● [green] (green dots indicate good demethylation (>50% conversion))
2,"KKKAR[Lys(Me3)]SAGAAKRKA [Peptide H1.4K25me3, 15-mer linker histone H1.4 residues 20-34 peptide, tri-methylated K25]",● [red]
3,"KKKAA[Lys(Me3)]KAGGTPRKA [Peptide H1.2K25me3, 15-mer linker histone H1.2 residues 20-34 peptide, tri-methylated K25]",● [red]
4,"KKKA[Lys(Me3)]KAGATAGKRK [Peptide H1.3K24me3, 15-mer linker histone H1.3 residues 20-34 peptide, tri-methylated K24]",● [green] (green dots indicate good demethylation (>50% conversion))
5,"KKKATK[Lys(Me3)]AAGAGAAK [Peptide H1.5K26me3, 15-mer linker histone H1.5 residues 20-34 peptide, tri-methylated K26]",● [green] (green dots indicate good demethylation (>50% conversion))
